Columns and labels:
Thermal stability test = format: physicochemical; conditions: 60° C. for 2 weeks without humidity control, brown glass vessel
Experimental: (§1) In the following Assay Examples 2 to 4, the stability of the ethanolamine salt (1), tromethamine salt (2), choline salt (3) and potassium salt (4) of 3-{[((2E)-2-{1-[5-(4-t-butylphenyl)-4-hydroxy-3-thienyl]ethylidene}hydrazino)carbonothioyl]amino}benzoic acid to temperature, humidity and light was evaluated, by related substance increase (%), weight change (%) or TG loss change (%) through appropriate selection.
(§2) Related substance increase (%)
(§3) Each sample was analyzed by high performance liquid chromatography before and after treatment, and the sum of area percentages for analogues in each sample were calculated. • Column: L-column ODS (Chemicals Evaluation and Research Institute, Japan inner diameter 4.6 mm, length 250 mm) • Detector: UV absorptiometer (wavelength; […]) • Column temperature: 40° C. • Flow rate: 1.0 mL/min • Injection volume: 10 μL • Mobile phase: (a) 0.01 M ammonium formate buffer (pH 3.0) • (b) acetonitrile Measurements were carried out with a gradient between the above (a) and (b) solutions.
The thermal stability of the ethanolamine salt (1), tromethamine salt (2), choline salt (3) and potassium salt (4) of 3-{[((2E)-2-{1-[5-(4-t-butylphenyl)-4-hydroxy-3-thienyl]ethylidene}hydrazino)carbonothioyl]amino}benzoic acid was evaluated as follows.
Each sample was put in a brown glass vessel, and the vessel was left at 60° C. for 2 weeks without humidity control. After 2 weeks, the sample was withdrawn, and the related substance increase (%) was evaluated.

Hygrostability test = format: physicochemical; conditions: 25° C./90% RH for 2 weeks, vessel left open
Experimental: as §1, §2, §3
(§4) Each sample was weighed before and after treatment, and weight gain was calculated in percentages from the difference in weight. The magnitude of weight change during treatment is an indication of stability of a compound. TG loss change (%);
(§5) About 5 mg of each sample was weighed out before and after treatment and put in an aluminum pan, and TG measurements were performed with the pan left open. The rate of TG loss of each sample was calculated in percentages (%). The measuring conditions are shown below.
(§6) Measuring Conditions; • Instrument:TG8120 (Rigaku Corporation) • Measuring range: room temperature to 105° C. • Heating rate: 5° C./min • Atmosphere: air 50 mL/min
(§7) An increase in TG loss from the initial value indicates possibility of moisture absorption and degradation of a compound. Therefore, the magnitude of change in TG loss is an indication of stability of a compound.
The hygrostability of the ethanolamine salt (1), tromethamine salt (2), choline salt (3) and potassium salt (4) of 3-{[((2E)-2-{1-[5-(4-t-butylphenyl)-4-hydroxy-3-thienyl]ethylidene}hydrazino)carbonothioyl]amino}benzoic acid was evaluated as follows.
About 1 g of each sample was put in a transparent glass vessel and maintained at 25° C./90% RH (relative humidity) for 2 weeks with the vessel left open. After 2 weeks, the sample was withdrawn, and the related substance increase (%), weight change (%) and TG loss change (%) were evaluated.

Photostability test = format: physicochemical; conditions: 25° C./60% RH, vessel left open, light of 200 W·hr·m^2 for 57 hours
Experimental: as §1, §2, §3, §4, §5, §6, §7
The photostability of the ethanolamine salt (1), tromethamine salt (2), choline salt (3) and potassium salt (4) of 3-{[((2E)-2-{1-[5-(4-t-butylphenyl)-4-hydroxy-3-thienyl]ethylidene}hydrazino)carbonothioyl]amino}benzoic acid was evaluated as follows.
About 1 g of each sample was put in a transparent glass vessel at 25° C./60% RH (relative humidity) with the vessel left open and irradiated with light of 200 W·hr·m^2 for 57 hours. […], the sample was withdrawn, and the related substance increase (%), weight change (%) and TG loss change (%) were evaluated.

[1] = Initial values of TG loss and related substances before treatment; format: physicochemical; conditions: initial value before treatment; for Related substances (%): HPLC, sum of area percentages for analogues; for TG loss (%): TG room temperature to 105° C.
Experimental: as §2, §3, §5, §6

[2] = Oral absorption test on dogs; format: in vivo; conditions: beagle dogs, oral capsule, 360 mg/dog; ratio to Compound A (free form)
Experimental: Oral Absorption Test on Dogs
The free form (Compound A), potassium salt, organic amine salts (ethanolamine salt and tromethamine salt) and salt of quaternary ammonium ion (choline salt) of 3-{[((2E)-2-{1-[5-(4-t-butylphenyl)-4-hydroxy-3-thienyl]ethylidene}hydrazino)carbonothioyl]amino}benzoic acid in capsule were orally administered to beagle dogs at a dose of 360 mg/dog. 0.5, 1, 2, 4, 6, 8 and 24 hours after the administration, blood was collected to obtain plasma samples. Their concentrations in dog plasma were measured by LC/MS/MS. Using the plasma concentrations obtained, maximum plasma concentration (Cmax), time to maximum plasma concentration (Tmax) and area under the plasma concentration-time curve were calculated.
In FIG. 1, * represents Compound A (Free Acid), ♦ represents the potassium salt (Potassium Salt), □ represents the choline salt (Choline Salt), ▴ represents ethanolamine (Ethanolamine Salt), and ◯ represents the tromethamine salt (Tromethamine Salt).

SMILES	Related substance increase (Thermal stability test)	Related substance increase (Hygrostability test)	TG loss change (Hygrostability test)	Weight change (Hygrostability test)	Related substance increase (Photostability test)	TG loss change (Photostability test)	Weight change (Photostability test)	Related substances (%) [1]	TG loss (%) [1]	area under the plasma concentration-time curve (AUC), times better than Compound A [2]	maximum plasma concentration (Cmax), times better than Compound A [2]
C/C(=N\NC(=S)Nc1cccc(C(=O)O)c1)c1csc(-c2ccc(C(C)(C)C)cc2)c1O.NC(CO)(CO)CO [(2), Tromethamine salt of 3-{[((2E)-2-{1-[5-(4-t-butylphenyl)-4-hydroxy-3-thienyl]ethylidene}hydrazino)carbonothioyl]amino}benzoic acid]	−0.01%	−0.03%	−0.13%	0.00%	0.01%	−0.13%	0.01%	0.07%	0.11%		
C/C(=N\NC(=S)Nc1cccc(C(=O)[O-])c1)c1csc(-c2ccc(C(C)(C)C)cc2)c1O.C[N+](C)(C)CCO [(3), Choline salt of 3-{[((2E)-2-{1-[5-(4-t-butylphenyl)-4-hydroxy-3-thienyl]ethylidene}hydrazino)carbonothioyl]amino}benzoic acid]	−0.01%	−0.01%	0.66%	0.10%	0.00%	0.58%	0.17%	0.34%	1.19%		
C/C(=N\NC(=S)Nc1cccc(C(=O)[O-])c1)c1csc(-c2ccc(C(C)(C)C)cc2)c1O.[K+] [(4), Potassium 3-{[((2E)-2-{1-[5-(4-t-butylphenyl)-4-hydroxy-3-thienyl]ethylidene}hydrazine)carbonothioyl]amino}benzoate, reference compound]	2.46%	0.39%	7.86%	23.22%	0.27%	3.16%	9.36%	1.86%	3.18%	6.3 times	7.2 times
C/C(=N\NC(=S)Nc1cccc(C(=O)O)c1)c1csc(-c2ccc(C(C)(C)C)cc2)c1O.NCCO [(1), Ethanolamine salt of 3-{[((2E)-2-{1-[5-(4-t-butylphenyl)-4-hydroxy-3-thienyl]ethylidene}hydrazino)carbonothioyl]amino}benzoic acid]	0.16%	0.04%	−0.26%	0.29%	−0.01%	−0.25%	0.23%	0.34%	0.64%		

Source: patent US8946286B2, “Organic amine salts of aminobenzoic acid derivatives and method for producing same” (Nissan Chemical Industries, Ltd., priority 2010, dated 2015)
